{
  "source": "patent US20130273649A1",
  "about": "“Culture medium for pluripotent stem cells” (UNIVERSITY OF SOUTHERN CALIFORNIA, priority 2012, published 2013)",
  "tested_on": "H9 human ESCs",
  "test": "Human ESC self-renewal culture",
  "format": "cell-based",
  "text": "As human ESCs share defining features with mouse EpiSCs (Hanna et al., 2010; Rossant, 2008; Tesar et al., 2007), we tested whether modulating β-catenin function can also promote human ESC self-renewal. […] Next, we examined the effect of CHIR/XAV and CHIR/IWR-1 on human ESC self-renewal. […] Similar results were obtained in H1 and HES3 human ESCs (data not shown). […] Moreover, human ESCs maintained in CHIR/IWR-1 express pluripotency markers Oct4, Nanog and Sox2 (FIG. 7E), and retain the ability to differentiate into cells of all three germ layers, both in vitro and in vivo (FIGS. 7F and 7G).\nThe basal medium for mouse EpiSC culture is the conventional mouse ESC medium, which consists of GMEM (Sigma) supplemented with 10% fetal bovine serum (FBS) (Hyclone), 2 mM L-glutamine (Invitrogen), 1 mM sodium pyruvate (Invitrogen), 1% nonessential amino acids (Invitrogen), and 0.1 mM (3-mercaptoethanol. Mouse EpiSCs were derived and maintained in the basal medium supplemented with FGF2/activin, CHIR/XAV, or CHIR/IWR-1. The basal medium for rat EpiSC culture is N2B27 (Tong et al., 2011), which was prepared by mixing 500 ml of DMEM/F12 (Invitrogen) with 500 ml of Neurobasal™ medium (Invitrogen), and adding 5 ml of N2 (Invitrogen), 10 ml of B27 (Invitrogen), 5 ml of Glutamax™ (Invitrogen), and 1 ml of 0.1 M β-mercaptoethanol (Sigma). The basal medium for human ESC culture consists of Knockout™ DMEM/F12 supplemented with 20% KSR (Invitrogen), 1% nonessential amino acids, 2 mM L-glutamine, and 0.1 mM (3-mercaptoethanol. Human ESCs were cultured in the basal medium supplemented with FGF2, CHIR/XAV, or CHIR/IWR-1.\nH1, H9, HES-2 and HES-3 human ESC lines were kindly provided by the University of Southern California Stem Cell Core Facility. Human ESCs were routinely maintained on γ-irradiated MEF feeders in Knockout™ DMEM medium (Invitrogen) supplemented with 20% Knockout™ serum replacement (KSR; Invitrogen), 10 ng/ml FGF2 (PeproTech), 1% nonessential amino acids, 2 mM L-glutamine, and 0.1 mM β-mercaptoethanol. […]",
  "data": [
    {"smiles": "Cc1c[nH]c(-c2cnc(NCCNc3ccc(C#N)cn3)nc2-c2ccc(Cl)cc2Cl)n1", "note": "[CHIR99021, 6-((2-((4-(2,4-Dichlorophenyl)-5-(4-methyl-1H-imidazol-2-yl)pyrimidin-2-yl)amino)ethyl)amino)nicotinonitrile]", "values": [
      {"measurement": "self-renewal of Axin2-overexpressing human ESCs", "setting": "Axin2-hESC (H9), CHIR alone", "value": "could support stable and long-term self-renewal of Axin2-hESCs"},
      {"measurement": "human ESC self-renewal / differentiation", "setting": "H9 human ESCs, CHIR 3 μM, IWR-1 2.5 μM, XAV939 2 μM", "value": "induced differentiation of H9 human ESCs"}
    ]}
  ]
}
